Data reported in the NIST ThermoML archive (doi:10.1016/j.jct.2008.12.014).

Conditions: Liquid, Vibrating tube method

CC(C)O [propan-2-ol]
Conditions | mass density [kg/m3]
280.21 K, 117.9 kPa | 797.61
280.21 K, 439.6 kPa | 797.89
280.21 K, 938.7 kPa | 798.29
280.21 K, 1328.4 kPa | 798.62
280.21 K, 1656.6 kPa | 798.89
280.21 K, 1944.9 kPa | 799.14
280.21 K, 2440.6 kPa | 799.56
280.21 K, 2850.6 kPa | 799.88
280.21 K, 3198 kPa | 800.17
280.21 K, 3679.1 kPa | 800.56
280.21 K, 4071.1 kPa | 800.9
280.21 K, 4437.7 kPa | 801.19
280.21 K, 4832.6 kPa | 801.5
280.21 K, 5182.1 kPa | 801.8
280.21 K, 5559.1 kPa | 802.1
280.21 K, 5910 kPa | 802.39
280.21 K, 6334.9 kPa | 802.73
280.21 K, 6750.9 kPa | 803.06
280.21 K, 7592 kPa | 803.74
280.21 K, 7999 kPa | 804.07
280.21 K, 8329 kPa | 804.33
280.21 K, 8817 kPa | 804.7
280.21 K, 9350.6 kPa | 805.11
280.21 K, 9658.5 kPa | 805.38
281.21 K, 7166.5 kPa | 803.39
300.09 K, 186.7 kPa | 780.22
300.09 K, 610.5 kPa | 780.62
300.09 K, 953.4 kPa | 780.94
300.09 K, 1339.5 kPa | 781.31
300.09 K, 1722.1 kPa | 781.66
300.09 K, 2044.8 kPa | 781.96
300.09 K, 2446.4 kPa | 782.34
300.09 K, 2834.6 kPa | 782.7
300.09 K, 3224.9 kPa | 783.06
300.09 K, 3671.1 kPa | 783.47
300.09 K, 4074.1 kPa | 783.84
300.09 K, 4362.5 kPa | 784.11
300.09 K, 4771.8 kPa | 784.48
300.09 K, 5226.5 kPa | 784.89
300.09 K, 5579.2 kPa | 785.21
300.09 K, 6001.6 kPa | 785.59
300.09 K, 6427.2 kPa | 785.98
300.09 K, 6780.3 kPa | 786.29
300.09 K, 7214.7 kPa | 786.68
300.09 K, 7629.9 kPa | 787.05
300.09 K, 8020.3 kPa | 787.4
300.09 K, 8417.5 kPa | 787.75
300.09 K, 8805.7 kPa | 788.1
300.09 K, 9212.9 kPa | 788.45
300.09 K, 9621.5 kPa | 788.81
325.12 K, 202.7 kPa | 757.05
325.12 K, 609.4 kPa | 757.49
325.12 K, 960 kPa | 757.87
325.12 K, 1253.9 kPa | 758.21
325.12 K, 1638.8 kPa | 758.63
325.12 K, 2021 kPa | 759.06
325.12 K, 2328.8 kPa | 759.39
325.12 K, 3014.9 kPa | 760.15
325.12 K, 3321.4 kPa | 760.48
325.12 K, 3659.4 kPa | 760.85
325.12 K, 4004.1 kPa | 761.22
325.12 K, 4399.2 kPa | 761.65
325.12 K, 4691.2 kPa | 761.97
325.12 K, 5010.7 kPa | 762.32
325.12 K, 5383.4 kPa | 762.71
325.12 K, 5730.5 kPa | 763.08
325.12 K, 6143.6 kPa | 763.52
325.12 K, 6525.6 kPa | 763.91
325.12 K, 6903.2 kPa | 764.31
325.12 K, 7293.8 kPa | 764.72
325.12 K, 7661.9 kPa | 765.11
325.12 K, 7918.6 kPa | 765.38
325.12 K, 8254.4 kPa | 765.72
325.12 K, 8755.5 kPa | 766.24
325.15 K, 2655.8 kPa | 759.75
350.14 K, 220.4 kPa | 731.92
350.14 K, 663.4 kPa | 732.49
350.14 K, 1071.2 kPa | 733.03
350.14 K, 1412.6 kPa | 733.49
350.14 K, 1844.7 kPa | 734.07
350.14 K, 2226.7 kPa | 734.58
350.14 K, 2644.7 kPa | 735.11
350.14 K, 2842.7 kPa | 735.41
350.14 K, 3286.9 kPa | 735.99
350.14 K, 3630.7 kPa | 736.45
350.14 K, 4012.2 kPa | 736.94
350.14 K, 4394.6 kPa | 737.43
350.14 K, 4757.6 kPa | 737.91
350.14 K, 5197.9 kPa | 738.48
350.14 K, 5577.9 kPa | 738.96
350.14 K, 5939.3 kPa | 739.42
350.14 K, 6321.3 kPa | 739.89
350.14 K, 6730.9 kPa | 740.41
350.14 K, 7119.7 kPa | 740.89
350.14 K, 7564.4 kPa | 741.45
350.14 K, 7988.5 kPa | 741.97
350.14 K, 8472.5 kPa | 742.55
350.14 K, 8925.8 kPa | 743.13
350.14 K, 9280.8 kPa | 743.56
350.14 K, 9676.3 kPa | 744.05
375.01 K, 349.5 kPa | 702.23
375.01 K, 703.3 kPa | 702.82
375.01 K, 1046.8 kPa | 703.38
375.01 K, 1437.5 kPa | 704.01
375.01 K, 1791.6 kPa | 704.58
375.01 K, 2161.7 kPa | 705.16
375.01 K, 2545.7 kPa | 705.76
375.01 K, 2909.9 kPa | 706.34
375.01 K, 3364.1 kPa | 707.04
375.01 K, 3677.6 kPa | 707.53
375.01 K, 4083.2 kPa | 708.16
375.01 K, 4515.7 kPa | 708.82
375.01 K, 4853.5 kPa | 709.33
375.01 K, 5280.2 kPa | 709.98
375.01 K, 5646.9 kPa | 710.53
375.01 K, 6138.1 kPa | 711.26
375.01 K, 6447.1 kPa | 711.73
375.01 K, 6880.9 kPa | 712.37
375.01 K, 7269.8 kPa | 712.94
375.01 K, 7772.4 kPa | 713.68
375.01 K, 8119.2 kPa | 714.18
375.01 K, 8557.2 kPa | 714.81
375.01 K, 8987.3 kPa | 715.42
375.01 K, 9423.8 kPa | 716.04
375.01 K, 9842.2 kPa | 716.64
392.57 K, 407.6 kPa | 679.26
392.57 K, 888.7 kPa | 680.18
392.57 K, 1171.4 kPa | 680.72
392.57 K, 1526.6 kPa | 681.39
392.57 K, 1897.4 kPa | 682.08
392.57 K, 2272.3 kPa | 682.77
392.57 K, 2619.1 kPa | 683.41
392.57 K, 3050.4 kPa | 684.2
392.57 K, 3411.2 kPa | 684.86
392.57 K, 3835 kPa | 685.63
392.57 K, 4095.7 kPa | 686.12
392.57 K, 4524.9 kPa | 686.89
392.57 K, 4902.8 kPa | 687.57
392.57 K, 5283.5 kPa | 688.24
392.57 K, 5775.9 kPa | 689.09
392.57 K, 6039.6 kPa | 689.55
392.57 K, 6476.6 kPa | 690.3
392.57 K, 6889.7 kPa | 691.01
392.57 K, 7348 kPa | 691.78
392.57 K, 7728 kPa | 692.42
392.57 K, 8172.7 kPa | 693.17
392.57 K, 8598.3 kPa | 693.88
392.57 K, 9018.5 kPa | 694.57
392.57 K, 9405 kPa | 695.2
392.57 K, 9837.9 kPa | 695.89
